These are literature values, as cited in US9782610B2, “Nontoxic, non-endocrine disrupting, cytoprotective, UV-radiation resistant sunblock compositions” (3rd Rock Sunblock, Inc., priority 2007, dated 2017).

For one data set, the system named is estrogenic activity. The following applies: uterine wet weight, cell height, cell proliferation assays.

As for `COc1ccc(C(=O)c2ccccc2)c(O)c1` [Benzophenone-3], the “activity in cells / cancer cell growth” value in the data set with cancer cells is listed as “made cancer cells grow more rapidly”. Also, in the data set with estrogenic activity, the estrogenicity result was “highly estrogenic”.

`Cc1ccc(C=C2C(=O)C3(C)CCC2C3(C)C)cc1` (stereo not drawn) [Example 4-MBC, 3-(4-methylbenxylidene) camphor]: the “activity in cells / cancer cell growth” value with cancer cells was “made cancer cells grow more rapidly”. Moreover, the estrogenicity result in the data set with estrogenic activity is given as “highly estrogenic”.

Regarding `CC1CC(OC(=O)c2ccccc2O)CC(C)(C)C1` (stereo not drawn) [homosalate], in the data set with cancer cells, the “activity in cells / cancer cell growth” value is “made cancer cells grow more rapidly”.

Consider `CCCCC(CC)COC(=O)c1ccc(N(C)C)cc1` (stereo not drawn) [octyl-dimethyl-PABA], for which the “activity in cells / cancer cell growth” value with cancer cells is given as “made cancer cells grow more rapidly”.
